# According to PubChem BioAssay (NCI):
#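 GI50: concentration for 50% inhibition of growth. TGI denotes the concentration required for complete inhibition of growth.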
# Legend:
# Assay in all cases: NCI anticancer screen, dose series, 384-well format
# [1] = tested on: NCI/ADR-RES ovarian
# [2] = tested on: OVCAR-3 ovarian
# [3] = tested on: BT-549 breast
# [4] = tested on: HCT-116 colon
# [5] = tested on: SNB-75 CNS
# [6] = tested on: PC-3 prostate
# [7] = tested on: MOLT-4 leukemia
# [8] = tested on: HS 578T breast
# [9] = tested on: LOX IMVI melanoma
# [10] = tested on: IGROV1 ovarian
# [11] = tested on: SF-295 CNS
# [12] = tested on: CAKI-1 renal
# [13] = tested on: SN12C renal
# [14] = tested on: SR leukemia
# [15] = tested on: M14 melanoma
# [16] = tested on: UACC-257 melanoma
# [17] = tested on: HOP-92 NSCLC
# [18] = tested on: MDA-MB-435 melanoma
# [19] = tested on: OVCAR-5 ovarian
# [20] = tested on: NCI-H522 lung
# [21] = tested on: ACHN renal
# [22] = tested on: MALME-3M melanoma
# [23] = tested on: MCF7 breast
# [24] = tested on: RPMI-8226 leukemia
# [25] = tested on: DU-145 prostate
# [26] = tested on: SNB-19 CNS
# [27] = tested on: A549 NSCLC
# [28] = tested on: T-47D breast
# [29] = tested on: HOP-62 NSCLC
# [30] = tested on: NCI-H322M lung
# [31] = tested on: EKVX NSCLC
# [32] = tested on: HL-60(TB) leukemia
# [33] = tested on: SK-MEL-5 melanoma
# [34] = tested on: NCI-H226 lung
# [35] = tested on: UO-31 renal
# [36] = tested on: NCI-H460 NSCLC
# [37] = tested on: CCRF-CEM leukemia
# [38] = tested on: UACC-62 melanoma
# [39] = tested on: SF-539 CNS
# [40] = tested on: U251 glioblastoma
# [41] = tested on: SK-MEL-28 melanoma
# [42] = tested on: KM12 colon
# [43] = tested on: SW-620 colon
# [44] = tested on: TK-10 renal
# [45] = tested on: MDA-MB-468 breast
# [46] = tested on: NCI-H23 lung
# [47] = tested on: SK-OV-3 ovarian
# [48] = tested on: SF-268 CNS
# [49] = tested on: OVCAR-4 ovarian
# [50] = tested on: RXF 393 renal
# [51] = tested on: 786-0 renal
# [52] = tested on: OVCAR-8 ovarian
# [53] = tested on: A498 renal
# [54] = tested on: HCT-15 colon
structure (smiles),measurement,setting,value
COc1ccc(CN2C3CC2CN(c2ccc(-c4cc(OCC(C)(C)O)cn5ncc(C#N)c45)cn2)C3)cn1,GI50,[1],21.4 µM
same,TGI,[1],> 100 µM
same,GI50,[2],> 28.5 µM
same,TGI,[2],> 100 µM
same,GI50,[3],1.87 µM
same,TGI,[3],7.68 µM
same,GI50,[4],24.2 µM
same,TGI,[4],> 100 µM
same,GI50,[5],1.85 µM
same,TGI,[5],7.29 µM
same,GI50,[6],> 100 µM
same,TGI,[6],> 100 µM
same,GI50,[7],1.58 µM
same,TGI,[7],3.13 µM
same,GI50,[8],6.92 µM
same,TGI,[8],> 50.1 µM
same,GI50,[9],50.8 µM
same,TGI,[9],> 100 µM
same,GI50,[10],7.33 µM
same,TGI,[10],> 60 µM
same,GI50,[11],5.36 µM
same,TGI,[11],9.56 µM
same,GI50,[12],5.02 µM
same,TGI,[12],> 100 µM
same,GI50,[13],2.44 µM
same,TGI,[13],> 45.8 µM
same,GI50,[14],1.64 µM
same,TGI,[14],3.24 µM
same,GI50,[15],> 82 µM
same,TGI,[15],> 100 µM
same,GI50,[16],> 31.6 µM
same,TGI,[16],> 31.6 µM
same,GI50,[17],2.92 µM
same,TGI,[17],38.1 µM
same,GI50,[18],> 100 µM
same,TGI,[18],> 100 µM
same,GI50,[19],> 100 µM
same,TGI,[19],> 100 µM
same,GI50,[20],7.9 µM
same,TGI,[20],> 31.6 µM
same,GI50,[21],25.4 µM
same,TGI,[21],> 100 µM
same,GI50,[22],> 28.9 µM
same,TGI,[22],> 100 µM
same,GI50,[23],> 31.6 µM
same,TGI,[23],> 31.6 µM
same,GI50,[24],> 28.8 µM
same,TGI,[24],> 31.6 µM
same,GI50,[25],28.3 µM
same,TGI,[25],> 100 µM
same,GI50,[26],> 100 µM
same,TGI,[26],> 100 µM
same,GI50,[27],7.53 µM
same,TGI,[27],> 31.6 µM
same,GI50,[28],> 31.6 µM
same,TGI,[28],> 31.6 µM
same,GI50,[29],8.51 µM
same,TGI,[29],> 31.6 µM
same,GI50,[30],> 74 µM
same,TGI,[30],> 100 µM
same,GI50,[31],> 31.6 µM
same,TGI,[31],> 31.6 µM
same,GI50,[32],4.36 µM
same,TGI,[32],11.5 µM
same,GI50,[33],> 31.6 µM
same,TGI,[33],> 31.6 µM
same,GI50,[34],2.94 µM
same,TGI,[34],15.4 µM
same,GI50,[35],> 100 µM
same,TGI,[35],> 100 µM
same,GI50,[36],5.11 µM
same,TGI,[36],> 100 µM
same,GI50,[37],1.99 µM
same,TGI,[37],3.76 µM
same,GI50,[38],98.7 µM
same,TGI,[38],> 100 µM
same,GI50,[39],2.08 µM
same,TGI,[39],6.86 µM
same,GI50,[40],> 31.6 µM
same,TGI,[40],> 31.6 µM
same,GI50,[41],> 100 µM
same,TGI,[41],> 100 µM
same,GI50,[42],> 100 µM
same,TGI,[42],> 100 µM
same,GI50,[43],4.99 µM
same,TGI,[43],> 100 µM
same,GI50,[44],> 31.6 µM
same,TGI,[44],> 31.6 µM
same,GI50,[45],5.75 µM
same,TGI,[45],9.04 µM
same,GI50,[46],8.4 µM
same,TGI,[46],27.8 µM
same,GI50,[47],24.3 µM
same,TGI,[47],> 31.6 µM
same,GI50,[48],> 26.8 µM
same,TGI,[48],> 100 µM
same,GI50,[49],5.26 µM
same,TGI,[49],> 100 µM
same,GI50,[50],4.29 µM
same,TGI,[50],7.91 µM
same,GI50,[51],57.3 µM
same,TGI,[51],> 100 µM
same,GI50,[52],22.3 µM
same,TGI,[52],> 31.6 µM
same,GI50,[53],> 38.3 µM
same,TGI,[53],> 100 µM
same,GI50,[54],9.55 µM
same,TGI,[54],> 31.6 µM
